Data taken from US20240150293A1, “SPIROCYCLOHEXANE DERIVATIVES, PHARMACEUTICAL COMPOSITIONS CONTAINING THEM AND THEIR USES AS ANTI-APOPTOTIC INHIBITORS” (LES LABORATOIRES SERVIER, priority 2021, published 2024).

Each compound was assayed against Mcl-1 protein (UniProtKB Q07820) (Homo sapiens (Human), UniProt Q07820) (assay: Inhibition of Mcl-1 by the fluorescence polarisation assay (Example A, Method A)). Conditions: fluorescence polarization assay.
Chain of Mcl-1 protein (Q07820 whole entry): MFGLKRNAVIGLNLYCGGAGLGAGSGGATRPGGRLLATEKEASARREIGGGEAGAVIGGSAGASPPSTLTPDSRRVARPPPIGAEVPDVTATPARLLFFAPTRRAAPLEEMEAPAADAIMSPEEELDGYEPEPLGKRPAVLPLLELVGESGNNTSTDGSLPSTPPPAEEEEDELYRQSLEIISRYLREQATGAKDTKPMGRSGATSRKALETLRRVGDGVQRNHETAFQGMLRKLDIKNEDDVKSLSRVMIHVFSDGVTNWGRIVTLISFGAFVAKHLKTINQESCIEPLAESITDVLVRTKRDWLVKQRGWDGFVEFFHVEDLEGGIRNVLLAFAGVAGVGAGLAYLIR
Type: binding
How it was run: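 Protein (5 nM) and fluorescein-tagged peptide tracer (1 nM) incubated with 11-point compound series for 2 h at room temperature in HEPES/NaCl/Tween 20 buffer, pH 7.4, 5% DMSO. Displacement read as decrease in polarisation; IC50 fitted by 4-parameter logistic, converted to Ki (cKi or eKi).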
`COCCOc1ccc2c(c1)[C@]1(CC2)CC[C@](Nc2cccc(Br)c2)(C(=O)O)CC1` [Example 67, (1r,4s)-4-(3-bromoanilino)-6′-(2-methoxyethoxy)-2′,3′-dihydrospiro[cyclohexane-1,1′-indene]-4-carboxylic acid] showed a Ki of 101 nM. `COc1ccc(Cl)c(C2Cc3ccccc3[C@]23CC[C@@](Nc2ccccc2)(C(=O)O)CC3)c1` (single isomer, unassigned) [Example 260, (1r,4r)-4-anilino-2′-(2-chloro-5-methoxyphenyl)-2′,3′-dihydrospiro[cyclohexane-1,1′-indene]-4-carboxylic acid] gave a Ki of 90100 nM. Work on `O=C(O)[C@]1(Nc2cc(Cl)cc(Cl)c2)CC[C@@]2(CCCc3ccccc32)CC1` [Example 120, (1r,4s)-4-[(3,5-dichlorophenyl)amino]-3′,4′-dihydro-2′H-spiro[cyclohexane-1,1′-naphthalene]-4-carboxylic acid] yielded a Ki of 19300 nM. `O=C(O)[C@]1(Nc2cccc(Cl)c2)CC[C@@]2(CC1)c1ccccc1CC2[C@H]1C[C@@H]1COc1ccccc1` (single isomer, unassigned) [Example 112, (1r,4r)-4-(3-chloroanilino)-2′-[(1R*,2S*)-2-(phenoxymethyl)cyclopropyl]-2′,3′-dihydrospiro[cyclohexane-1,1′-indene]-4-carboxylic acid] showed a Ki of 1620 nM. `O=C(O)[C@]1(Nc2cccc(Br)c2)CC[C@]2(CC1)c1ccccc1CC2c1ccccc1` (single isomer, unassigned) [Example 210, (1s,4s)-4-(3-bromoanilino)-2′-phenyl-2′,3′-dihydrospiro[cyclohexane-1,1′-indene]-4-carboxylic acid] showed a Ki of 89000 nM. In the case of `O=C(O)[C@]1(Nc2cccc(Cl)c2)CC[C@]2(CC1)C(CCOc1ccccc1)=Cc1ccccc12` [Example 171, (1r,4r)-4-(3-chloroanilino)-2′-(2-phenoxyethyl)spiro[cyclohexane-1,1′-indene]-4-carboxylic acid], the Ki is reported as 51.4 nM. `CCOCCCC1Cc2ccccc2[C@]12CC[C@@](Nc1cccc(Cl)c1)(C(=O)O)CC2` (some centres unmarked) [Example 156, (1r,4r)-4-(3-chloroanilino)-2′-(3-ethoxypropyl)-2′,3′-dihydrospiro[cyclohexane-1,1′-indene]-4-carboxylic acid] was tested, and the Ki was 621 nM. Work on `CN(CCc1ccccc1)C(=O)C1Cc2ccccc2[C@]12CC[C@@](Nc1cccc(Cl)c1)(C(=O)O)CC2` (single isomer, unassigned) [Example 407, (1r,4r)-4-(3-chloroanilino)-2′-[methyl(2-phenylethyl)carbamoyl]-2′,3′-dihydrospiro[cyclohexane-1,1′-indene]-4-carboxylic acid] yielded a Ki of 1370 nM. `Cc1cncn(CCCC2=Cc3ccccc3[C@]23CC[C@@](Nc2cccc(Cl)c2)(C(=O)O)CC3)c1=O` [Example 182, (1r,4r)-4-(3-chloroanilino)-2′-[3-(5-methyl-6-oxopyrimidin-1 (6H)-yl)propyl]spiro[cyclohexane-1,1′-indene]-4-carboxylic acid] gave a Ki of 1620 nM. `O=C(O)[C@]1(Nc2cccc(Cl)c2)CC[C@@]2(CC1)c1ccccc1C[C@@H]2c1cccc(Oc2ccccc2)c1` [Example 324, (1r,2′R,4R)-4-(3-chloroanilino)-2′-(3-phenoxyphenyl)-2′,3′-dihydrospiro[cyclohexane-1,1′-indene]-4-carboxylic acid] gave a Ki of 8450 nM. `O=C(O)[C@]1(Nc2cccc(Cl)c2)CC[C@]2(CC1)C(CCOCc1ccccc1)=Cc1ccccc12` [Example 395, (1r,4r)-2′-[2-(benzyloxy)ethyl]-4-(3-chloroanilino)spiro[cyclohexane-1,1′-indene]-4-carboxylic acid] showed a Ki of 101 nM. `COc1cc(Cl)cc(C2Cc3ccccc3[C@]23CC[C@@](Nc2cccc(Cl)c2)(C(=O)O)CC3)c1` (single isomer, unassigned) [Example 348, (1r,4r)-4-(3-chloroanilino)-2′-(3-chloro-5-methoxyphenyl)-2′,3′-dihydrospiro[cyclohexane-1,1′-indene]-4-carboxylic acid] was tested, and the Ki was 10600 nM. `Cc1ccc(C2Cc3ccccc3[C@]23CC[C@@](Nc2cccc(Cl)c2)(C(=O)O)CC3)cc1` (single isomer, unassigned) [Example 306, (1r,4r)-4-(3-chloroanilino)-2′-(4-methylphenyl)-2′,3′-dihydrospiro[cyclohexane-1,1′-indene]-4-carboxylic acid] was tested, and the Ki was 663 nM. In the case of `COc1ccc2c(c1)[C@]1(CC[C@@](Nc3cccc(Cl)c3)(C(=O)O)CC1)C(c1cccc(Oc3ccccc3)c1)C2` (single isomer, unassigned) [Example 379, (1r,4r)-4-(3-chloroanilino)-6′-methoxy-2′-(3-phenoxyphenyl)-2′,3′-dihydrospiro[cyclohexane-1,1′-indene]-4-carboxylic acid], the Ki is reported as 3100 nM. `COc1ccc2c(c1)[C@]1(CC[C@@](Nc3cccc(Br)c3)(C(=O)O)CC1)C(Cc1ccccc1)C2` (some centres unmarked) [Example 127, (1r,4r)-2′-benzyl-4-(3-bromoanilino)-6′-methoxy-2′,3′-dihydrospiro[cyclohexane-1,1′-indene]-4-carboxylic acid] gave a Ki of 2820 nM. `O=C(O)[C@]1(Nc2cccc(Cl)c2)CC[C@@]2(CC1)c1ccccc1CC2CCCOc1ccccc1` (some centres unmarked) [Example 424, (1r,4r)-4-(3-chloroanilino)-2′-(3-phenoxypropyl)-2′,3′-dihydrospiro[cyclohexane-1,1′-indene]-4-carboxylic acid] gave a Ki of 184 nM. Work on `CN1C(=O)Cc2cc(OCCCC3Cc4ccccc4[C@]34CC[C@@](Nc3cccc(Cl)c3)(C(=O)O)CC4)ccc21` (some centres unmarked) [Example 480, (1r,4r)-4-(3-chloroanilino)-2′-{3-[(1-methyl-2-oxo-2,3-dihydro-1H-indol-5-yl)oxy]propyl}-2′,3′-dihydrospiro[cyclohexane-1,1′-indene]-4-carboxylic acid] yielded a Ki of 431 nM. With `O=C(O)[C@]1(Nc2cccc(Cl)c2)CC[C@@]2(CC1)c1ccccc1CC2[C@H]1C[C@@H]1COc1ccnc2ccsc12` (single isomer, unassigned) [Example 105, (1r,4r)-4-(3-chloroanilino)-2′-[(1R*,2S*)-2-{[(thieno[3,2-b]pyridin-7-yl)oxy]methyl}cyclopropyl]-2′,3′-dihydrospiro[cyclohexane-1,1′-indene]-4-carboxylic acid] the Ki was 3700 nM. `O=C(O)[C@]1(Nc2cccc(Cl)c2)CC[C@@]2(CC1)c1ccccc1CC2CC(COCCN1CCOCC1)COc1ccnc2c1CCC2` (single isomer, unassigned) [Example 495, (1r,4r)-4-(3-chloroanilino)-2′-(2-{[(6,7-dihydro-5H-cyclopenta[b]pyridin-4-yl)oxy]methyl}-3-[2-(morpholin-4-yl)ethoxy]propyl)-2′,3′-dihydrospiro[cyclohexane-1,1′-indene]-4-carboxylic acid] showed a Ki of 11.4 nM. Compound `Cc1nc2c(c(OCCCC3Cc4ccccc4[C@]34CC[C@@](Nc3cccc(Cl)c3)(C(=O)O)CC4)n1)C(C)CC2` (some centres unmarked) [Example 468, (1r,4r)-4-(3-chloroanilino)-2′-{3-[(2,5-dimethyl-6,7-dihydro-5H-cyclopenta[d]pyrimidin-4-yl)oxy]propyl}-2′,3′-dihydrospiro[cyclohexane-1,1′-indene]-4-carboxylic acid] has a Ki of 234 nM. Work on `COc1ccc(N2C(=O)c3ccccc3[C@]23CC[C@@](Nc2cccc(Br)c2)(C(=O)O)CC3)cc1` [Example 33, (1s,4s)-4-(3-bromoanilino)-2′-(4-methoxyphenyl)-3′-oxo-2′,3′-dihydrospiro[cyclohexane-1,1′-isoindole]-4-carboxylic acid] yielded a Ki of 12100 nM. For `COc1cccc(C)c1C1=Cc2ccccc2[C@]12CC[C@@](Nc1cccc(Cl)c1)(C(=O)O)CC2` [Example 248, (1s,4s)-4-(3-chloroanilino)-2′-(2-methoxy-6-methylphenyl)spiro[cyclohexane-1,1′-indene]-4-carboxylic acid], the Ki was 28200 nM. For `O=C(O)[C@]1(Nc2cccc(Cl)c2)CC[C@]2(CC1)C(/C=C/c1ccc(-c3ccccc3)cc1)=Cc1ccccc12` [Example 158, (1r,4r)-2′-[(E)-2-([1,1′-biphenyl]-4-yl)ethenyl]-4-(3-chloroanilino)spiro[cyclohexane-1,1′-indene]-4-carboxylic acid], the Ki was 311 nM. In the case of `CN1c2ccc(Br)cc2[C@]2(CC[C@](Nc3cccc(Br)c3)(C(=O)O)CC2)C1=O` [Example 6, (1r,4r)-5′-bromo-4-(3-bromoanilino)-1′-methyl-2′-oxo-1′,2′-dihydrospiro[cyclohexane-1,3′-indole]-4-carboxylic acid], the Ki is reported as 9910 nM. Compound `COc1ccc(C)c(C2Cc3ccccc3[C@]23CC[C@@](Nc2cccc(Cl)c2)(C(=O)O)CC3)c1` (single isomer, unassigned) [Example 270, (1r,4r)-4-(3-chloroanilino)-2′-(5-methoxy-2-methylphenyl)-2′,3′-dihydrospiro[cyclohexane-1,1′-indene]-4-carboxylic acid] has a Ki of 3960 nM. Compound `O=C(O)[C@]1(Nc2cccc(Cl)c2)CC[C@@]2(CC1)c1ccccc1CC2c1ccc(Cl)cc1` (single isomer, unassigned) [Example 320, (1r,4r)-4-(3-chloroanilino)-2′-(4-chlorophenyl)-2′,3′-dihydrospiro[cyclohexane-1,1′-indene]-4-carboxylic acid] has a Ki of 6860 nM. `CC1=Cc2cccc(C)c2C12CCC(Nc1cccc(Br)c1)(C(=O)O)CC2` (centres unmarked) [Example 125, 4-(3-bromoanilino)-2′,7′-dimethylspiro[cyclohexane-1,1′-indene]-4-carboxylic acid] gave a Ki of 7500 nM. Work on `O=C(O)[C@]1(Nc2cccc(Cl)c2)CC[C@@]2(CC1)c1ccccc1CC2CCCOc1cccc2[nH]cnc12` (some centres unmarked) [Example 469, (1r,4r)-2′-{3-[(1H-benzimidazol-4-yl)oxy]propyl}-4-(3-chloroanilino)-2′,3′-dihydrospiro[cyclohexane-1,1′-indene]-4-carboxylic acid] yielded a Ki of 324 nM. With `O=C(O)[C@]1(Nc2cccc(Cl)c2)CC[C@]2(CC1)C(c1cccc3occc13)=Cc1ccccc12` [Example 340, (1s,4s)-2′-(1-benzofuran-4-yl)-4-(3-chloroanilino)spiro[cyclohexane-1,1′-indene]-4-carboxylic acid] the Ki was 921 nM.
